Seven molecules from ChEMBL document CHEMBL1201862, “PubChem BioAssay data set” (2004) can be followed below.

Test in all cases: NCI tumour cell line growth inhibition, 48 h
The test system of assay [1] is 786-0.
For assay [2], the system named is A549.
The subject of assay [3] is ACHN.
Assay [4] relates to CAKI-1.
Assay [5] relates to CCRF-CEM.
The test system of assay [6] is HCT-116.
In assay [7] the test system is K562.
The subject of assay [8] is MCF7.
Assay [9] has as its system Malme-3M.
In assay [10] the test system is NCI-H226.
For assay [11], the system named is NCI-H460.
The test system of assay [12] is OVCAR-5.
For assay [13], the system named is SF-268.
In assay [14] the test system is SF-539.
Assay [15] deals with SK-MEL-28.
The test system of assay [16] is SN12C.
Assay [17] deals with SNB-19.
In assay [18] the test system is SNB-75.
In assay [19] the test system is T47D.
Assay [20] relates to U-251.

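Briefly, cells in 96-well plates were exposed to five compound concentrations for 48 h, and endpoints were estimated by linear interpolation. GI50 marks 50% less growth.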 The source made the active and inactive calls. Rule as the data show it: active = GI50 up to about 1.1 µM and inactive = higher. Where only a bound is given, the exact number is not on record here.

`NC(=O)NC(=O)C1CCCCC1C(=O)O` (stereo not given): the GI50 in assay [1], in assay [2], in assay [3], in assay [4], in assay [5] and in assay [6] was > 100 µM (inactive) in each case. Further, the GI50 in assay [7] was 5.11 µM (inactive); in [8], > 100 µM (inactive); in assay [9] it was > 100 µM (inactive); in [10] it was > 100 µM (inactive); in assay [11], > 100 µM (inactive); in [12] it was > 100 µM (inactive). Moreover, the GI50 in [13], in assay [14], in [15], in [16], in assay [17] and in [18] was > 100 µM (inactive) each time. The GI50 in assay [19] and in [20] was > 100 µM (inactive) in each case.
On to `CCC1(C)C=Cc2c(cc(OC)c3c(=O)c4ccccc4n(C)c23)O1` (stereo not given), for which the GI50 in [1] is 5.27 µM (inactive); in assay [2] it was 3.94 µM (inactive); in [3], > 10 µM (inactive); in [4] it was 1.22 µM (inactive); in [5] it was 9.27 µM (inactive); in assay [6], > 10 µM (inactive). The GI50 in assay [7] is 8.61 µM (inactive); in [8] it was 0.785 µM (active); in assay [9] it was > 10 µM (inactive); in [10], > 10 µM (inactive); in assay [11], 8 µM (inactive); in assay [12], > 10 µM (inactive). The GI50 in assay [13] is > 10 µM (inactive); in assay [14], 4.47 µM (inactive); in assay [15], 9.16 µM (inactive); in assay [16], > 10 µM (inactive); in [17] it was > 10 µM (inactive); in assay [18], 7.13 µM (inactive). The GI50 in assay [19] was 4.99 µM (inactive); in [20], > 10 µM (inactive).
Turning to `CCN(CC)c1ccc(C(=C2C=CC(=[N+](CC)CC)C=C2)c2ccc(N(CC)CC)cc2)cc1`, the GI50 in assay [1] was 0.057 µM (active); in assay [2], 0.04 µM (active); in [3], 0.0446 µM (active); in assay [4], 0.21 µM (active); in assay [5], 0.0593 µM (active); in [6], 0.0493 µM (active). For the same molecule, the GI50 is 0.0353 µM (active) in assay [7]; 0.158 µM (active) in assay [8]; 0.148 µM (active) in assay [9]; 0.407 µM (active) in assay [10]; 0.0411 µM (active) in [11]; 0.303 µM (active) in [12]. The GI50 is 0.084 µM (active) in assay [13]; 0.195 µM (active) in [14]; 0.489 µM (active) in [15]; 0.0522 µM (active) in assay [16]; 0.101 µM (active) in assay [17]; 0.104 µM (active) in [18]. In addition, the GI50 in assay [19] was 0.106 µM (active); in [20], 0.0412 µM (active).
Take `CCc1nc2c(c(N(C)C)c1C(=O)OC)CCc1ccccc1-2`: the GI50 in [1] was 39.5 µM (inactive); in assay [2], 31 µM (inactive); in [3] it was 23 µM (inactive); in assay [4] it was 51.1 µM (inactive); in [5], 2.45 µM (inactive); in assay [6], 24.8 µM (inactive). Moreover, the GI50 is 20.2 µM (inactive) in assay [7]; 14.4 µM (inactive) in [8]; 30.5 µM (inactive) in assay [9]; 21.5 µM (inactive) in [10]; 30.6 µM (inactive) in assay [11]; 32.2 µM (inactive) in [12]. The GI50 is 47.1 µM (inactive) in [13]; 39.4 µM (inactive) in assay [14]; 38.5 µM (inactive) in assay [15]; 28.8 µM (inactive) in [16]; 38.4 µM (inactive) in assay [17]; 35.4 µM (inactive) in assay [18]. Also, the GI50 in assay [19] is 11 µM (inactive); in assay [20], 30.9 µM (inactive).
Take `Cc1nc2ccccc2n1CCc1nc2ccccc2[nH]1`: the GI50 in assay [1], in assay [2], in assay [3], in [4], in assay [5] and in assay [6] was > 100 µM (inactive) throughout. For the same molecule, the GI50 in assay [7] is > 100 µM (inactive); in assay [8], > 100 µM (inactive); in assay [9], > 100 µM (inactive); in assay [10], 31.6 µM (inactive); in [11], > 100 µM (inactive); in assay [12], > 100 µM (inactive). Also, the GI50 in assay [13], in assay [14], in assay [15], in assay [16], in [17] and in assay [18] was > 100 µM (inactive) in each case. In addition, the GI50 in assay [19] and in assay [20] was > 100 µM (inactive) in each case.
Consider `CCN(CC)CCCNc1ncc(C)c2c1c1ccc3c(O)cccc3c1n2C`, for which the GI50 in assay [1] is 0.789 µM (active); in assay [2], 0.389 µM (active); in assay [3], 1.8 µM (inactive); in assay [4], 0.449 µM (active); in [5], 0.392 µM (active); in assay [6], 1.05 µM (active). For the same molecule, the GI50 was 1.5 µM (inactive) in assay [7]; 0.191 µM (active) in [8]; 14.7 µM (inactive) in assay [9]; 3.44 µM (inactive) in [10]; 1.02 µM (active) in assay [11]; 5.57 µM (inactive) in assay [12]. The GI50 in assay [13] is 2.5 µM (inactive); in [14], 2.11 µM (inactive); in [15], 9.82 µM (inactive); in assay [16] it was 2.7 µM (inactive); in assay [17], 1.07 µM (active); in [18], 1.81 µM (inactive). Besides, the GI50 is 17.9 µM (inactive) in [19] and 1.1 µM (active) in [20].
On to `CN(C)Cc1ccc(C(C)(C)C)cc1-c1cc(C(C)(C)C)ccc1CN(C)C`, for which the GI50 in assay [1] is 70.5 µM (inactive); in [2] it was 93.5 µM (inactive); in [3], > 100 µM (inactive); in assay [4], > 100 µM (inactive); in [5], 42.7 µM (inactive); in assay [6], 37.7 µM (inactive). Besides, the GI50 in assay [7] is 27.8 µM (inactive); in assay [8] it was 37.6 µM (inactive); in assay [9], 31.3 µM (inactive); in assay [10], > 100 µM (inactive); in assay [11], 51.1 µM (inactive); in [12] it was > 100 µM (inactive). Also, the GI50 in assay [13] was > 100 µM (inactive); in assay [14] it was > 100 µM (inactive); in [15] it was 33.3 µM (inactive); in assay [16] it was 22.2 µM (inactive); in assay [17], > 100 µM (inactive); in assay [18] it was 88.1 µM (inactive). Further, the GI50 in assay [19] is 48.2 µM (inactive); in assay [20], 42.7 µM (inactive).
